Results on 30 compounds are retold here after patent US9090600B2, “Fungicidal 4-substituted-3-{phenyl[(heterocyclylmethoxy)imino]methyl}-1,2,4-oxadizol-5(4H)-one derivatives” (BAYER INTELLECTUAL PROPERTY GMBH, priority 2011, dated 2015).

Read-outs that look alike come from different tables or passages of the source. Marks after values point to notes of the source that are not given here.

Series [1] in a line: Measurement of log P values by HPLC on reversed phase columns (EEC directive 79/831 Annex V.A8). To be noted: for chromatographic logP: pH 2.7; for LogP: method [a], HPLC on reversed phase columns.
The test system of a further series is Plasmopara viticola. Briefly: Plasmopara test (grapevines)/preventive. The class given is in vivo. To be noted: preventive spray, 10 ppm of active ingredient, evaluated 6 days after inoculation. An outline of the steps:
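Young grapevines sprayed preventively with compound formulated in acetone/dimethylacetamide with emulsifier, diluted in water, then inoculated with P. viticola spores after drying. Held 1 day at ~20 °C/100% RH, 4 days in greenhouse at ~21 °C/~90% RH, then misted for 1 day. Efficacy scored 6 days post-inoculation (0% = untreated control, 100% = no disease).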

The test system of series [2] is Phytophthora infestans. The class given is in vivo. Particulars: tomato, preventive spray, 100 ppm of active ingredient, evaluated 7 days after inoculation.
Series [3] deals with Phytophthora infestans. The class given is in vivo. To be noted: tomato plants, spray, 500 ppm, grading 5 days after contamination.
Another series deals with Uromyces appendiculatus. Briefly: In vivo test on Uromyces appendiculatus (brown rust of bean). To be noted: Saxa variety plants, spray, 500 ppm, grading 10 days after contamination. The method, then:
(§1) The active ingredients tested are prepared by homogenization in a mixture of acetone/tween/DMSO, then diluted with water to obtain the desired active material.
[…] (Saxa variety) sown on 50/50 peat soil-pozzolana substrate in starter cups and grown at 24° C., are treated at the 2-leaf stage (9 cm tall) by spraying with the aqueous suspension described above.
Plants, used as controls, are treated with an aqueous solution not containing the active material.
(§2) After 24 hours, the plants are contaminated by spraying the leaves with an aqueous suspension of Uromyces appendiculatus spores (150.000 spores per ml). The spores are collected from a 10-day-old contaminated […] and are suspended in water containing 2.5 ml/l of tween 80 10%. The contaminated […] are incubated for 24 hours at 20° C. and at 100% relative humidity, and then for 10 days at 20° C. and at 70% relative humidity. Grading is carried out 10 days after the contamination, in comparison with the control plants.
(§3) Under these conditions, good (at least 70%) or total protection is observed at a dose of 500 ppm with the following compounds: […]

For series [4] the following is noted: pH 2.7.
For another series, the system named is Puccinia recondita. The series is described as follows: In vivo test on Puccinia recondita (brown rust). To be noted: wheat plants, spray, 500 ppm, grading 10 days after contamination. The method, then: as §1
Wheat plants (Scipion variety) sown on 50/50 peat soil-pozzolana substrate in starter cups and grown at 22° C. (12 h)/20° C. (12 h), are treated at the 1-leaf stage (10 cm tall) by spraying with the aqueous suspension described above.
as §2, with “Plants, used as controls, are treated with an aqueous solution not containing the active material. After” for “After”, “Puccinia recondite” for “Uromyces appendiculatus”, “(100.000” for “(150.000”
as §3

Usually chromatographic logP stands for lipophilicity estimated from chromatographic retention. A lower chromatographic logP goes with a more hydrophilic compound. `Cn1c(/C(=N\OCc2cccc(N)n2)c2ccccc2)noc1=O` [Example 1, 3-[(Z)-{[(6-aminopyridin-2-yl)methoxy]imino}(phenyl)methyl]-4-methyl-1,2,4-oxadiazol-5(4H)-one] showed a chromatographic logP in series [1] of 1.14.
Consider `Cn1c(/C(=N\OCc2csc(N)n2)c2ccccc2)noc1=O` [Example 4, 3-[(Z)-{[(2-amino-1,3-thiazol-4-yl)methoxy]imino}(phenyl)methyl]-4-methyl-1,2,4-oxadiazol-5(4H)-one], for which the chromatographic logP in series [1] is 1.54.
The term LogP denotes the decadic logarithm of the partition coefficient of the neutral form, usually between octanol and water. The low end stands for a more hydrophilic compound, the high end for a more lipophilic compound. As to `C=CCCCOC(=O)Nc1cccc(CO/N=C(/c2ccccc2)c2noc(=O)n2C)n1` [Example 6], the Eff. % turned out to be 100% in the series with Plasmopara viticola and 98% in the series on Phytophthora infestans [2]. In addition, the lipophilicity (LogP) in series [1] was 4.06 [a].
As to `CCCCOC(=O)Nc1nc(CO/N=C(/c2ccccc2)c2noc(=O)n2C)cs1` [Example 14, butyl {4-[({[(Z)-(4-methyl-5-oxo-4,5-dihydro-1,2,4-oxadiazol-3-yl)(phenyl)methylene]amino}oxy)methyl]-1,3-thiazol-2-yl}carbamate], the values for the Eff. % in the series with Plasmopara viticola and in the series on Phytophthora infestans [2] were 96% and 95%, respectively. The chromatographic logP in series [1] worked out at 3.73.
For the compound `CCCCOC(=O)Nc1cccc(CO/N=C(/c2ccccc2)c2noc(=O)n2C)n1` [Example 18, butyl {6-[({[(Z)-(4-methyl-5-oxo-4,5-dihydro-1,2,4-oxadiazol-3-yl)(phenyl)methylene]amino}oxy)methyl]pyridin-2-yl}carbamate], the Eff. % in the series on Plasmopara viticola worked out at 100%; in the series on Phytophthora infestans [2], 95%. In addition, in series [1], the chromatographic logP turned out to be 4.04.
With `CC(Oc1ccccc1)C(=O)Nc1nc(CO/N=C(/c2ccccc2)c2noc(=O)n2C)cs1` (stereo not drawn) [Example 19], the figures for the Eff. % in the series on Plasmopara viticola and with Phytophthora infestans [2] were 97% and 95%, respectively. Moreover, the LogP in series [1] was 3.71 [a].
Consider `Cn1c(/C(=N\OCc2cccc(NC(=O)OC(C)(C)C)n2)c2ccccc2)noc1=O` [Example 21, tert-butyl {6-[({[(Z)-(4-methyl-5-oxo-4,5-dihydro-1,2,4-oxadiazol-3-yl)(phenyl)methylene]amino}oxy)methyl]pyridin-2-yl}carbamate], for which the Eff. % in the series with Plasmopara viticola is listed as 100%; in the series with Phytophthora infestans [2], 97%. In series [1], this compound came in with a chromatographic logP of 3.96.
As to `Nc1cccc(CO/N=C(/c2ccccc2)c2noc(=O)[nH]2)n1` [Example 23, 3-[(Z)-{[(6-aminopyridin-2-yl)methoxy]imino}(phenyl)methyl]-1,2,4-oxadiazol-5(4H)-one], in series [1], the chromatographic logP turned out to be 1.36.
As to `Nc1nc(CO/N=C(/c2ccccc2)c2noc(=O)[nH]2)cs1` [Example 24, 3-[(Z)-{[(2-amino-1,3-thiazol-4-yl)methoxy]imino}(phenyl)methyl]-1,2,4-oxadiazol-5(4H)-one], the chromatographic logP in series [1] is 1.58.
Consider `Cn1c(/C(=N/OCc2cccc(N)n2)c2ccccc2)noc1=O` [Example 25, 3-[(E)-{[(6-aminopyridin-2-yl)methoxy]imino}(phenyl)methyl]-4-methyl-1,2,4-oxadiazol-5(4H)-one], for which the chromatographic logP in series [1] was 1.14.
As to `C#CCCCCC(=O)Nc1cccc(CO/N=C(/c2ccccc2)c2noc(=O)n2C)n1` [Example 37], the values for the Eff. % in the series on Plasmopara viticola and in the series on Phytophthora infestans [3] were 80% and 100%, respectively. For the same compound, in series [1], the LogP was 3.37 [a].
Regarding `Cn1c(/C(=N\OCc2cccc(NC(=O)C3(C)CCCCC3)n2)c2ccccc2)noc1=O` [Example 40], in series [1], the LogP was 4.36 [a]. Also, in the series on Phytophthora infestans [3], the Eff. % was 100%.
`COc1cccc(C(=O)Nc2cccc(CO/N=C(/c3ccccc3)c3noc(=O)n3C)n2)c1` [Example 44]: the Eff. % in the series on Plasmopara viticola came out at 98%; in the series with Phytophthora infestans [3] it was 100%. The LogP in series [1] is 3.62 [a].
On to `Cn1c(/C(=N\OCc2cccc(NC(=O)C(c3ccccc3)c3ccccc3)n2)c2ccccc2)noc1=O` [Example 46], for which the LogP in series [1] was 4.48 [a].
For the compound `Cn1c(/C(=N\OCc2cccc(NC(=O)CCC3CC3)n2)c2ccccc2)noc1=O` [Example 62], the results for the Eff. % with Uromyces appendiculatus and in the series with Phytophthora infestans [3] were 71% and 99%, respectively. Also, the LogP in series [4] is 3.51 [a].
For the compound `C=CCCCCCC(=O)Nc1cccc(CO/N=C(/c2ccccc2)c2noc(=O)n2C)n1` [Example 99], the Eff. % in the series with Uromyces appendiculatus is 71%; with Phytophthora infestans [3], 99%. Moreover, the LogP in series [4] was 4.3 [a].
Regarding `CC(Oc1ccccc1Br)C(=O)Nc1nc(CO/N=C(/c2ccccc2)c2noc(=O)n2C)cs1` (stereo not drawn) [Example 113], the Eff. % came to 79% with Uromyces appendiculatus and 90% with Phytophthora infestans [3]. Besides, the LogP in series [4] is 4.2 [a].
Regarding `COc1ccc(/C(=N/OCc2cccc(NC(=O)OC(C)CC(C)C)n2)c2noc(=O)n2C)cc1` (stereo not drawn) [Example 185], the figures for the Eff. % with Uromyces appendiculatus, in the series with Puccinia recondita and in the series with Phytophthora infestans [3] were 75%, 78% and 83%, respectively. Also, the log partition coefficient (LogP) in series [4] is 4.72 [a].
Regarding `Cn1c(/C(=N\OCc2cccc(NC(=O)OC(C)(C)C)n2)c2cccc(F)c2)noc1=O` [Example 206], the Eff. % was found to be 91% with Uromyces appendiculatus, 81% in the series with Plasmopara viticola and 100% with Phytophthora infestans [3]. The LogP in series [4] was 4.09 [a].
Consider `CC(Oc1ccc(Br)cc1)C(=O)Nc1nc(CO/N=C(/c2ccccc2)c2noc(=O)n2C)cs1` (stereo not drawn) [Example 216], for which the figures for the Eff. % in the series with Uromyces appendiculatus and with Phytophthora infestans [3] were 71% and 95%, respectively. Besides, the LogP in series [4] was 4.17 [a].
Regarding `CCCC(C)(C)OC(=O)Nc1cccc(CO/N=C(/c2ccccc2)c2noc(=O)n2C)n1` [Example 233, 2-methylpentan-2-yl {6-[({[(Z)-(4-methyl-5-oxo-4,5-dihydro-1,2,4-oxadiazol-3-yl)(phenyl)methylene]amino}oxy)methyl]pyridin-2-yl}carbamate], the Eff. % was 98% in the series with Puccinia recondita, 78% in the series on Plasmopara viticola and 99% in the series with Phytophthora infestans [3]. This compound gave a chromatographic logP in series [1] of 4.77.
Take `Cn1c(/C(=N\OCc2cccc(NCCC3CCCCC3)n2)c2ccccc2)noc1=O` [Example 253, 3-[(Z)-[({6-[(2-cyclohexylethyl)amino]pyridin-2-yl}methoxy)imino](phenyl)methyl]-4-methyl-1,2,4-oxadiazol-5(4H)-one]: the chromatographic logP in series [1] was determined as 2.96.
Regarding `Cn1c(C(=NOCc2cccc(NC(=O)OCCc3ccccc3)n2)c2ccc(F)cc2)noc1=O` [Example 258], the Eff. % was 93% in the series on Uromyces appendiculatus, 81% with Puccinia recondita and 89% in the series on Phytophthora infestans [3]. Moreover, the LogP in series [4] is 4.24 [a].
For `CC(Oc1ccc(Cl)cc1)C(=O)Nc1nc(CO/N=C(/c2ccccc2)c2noc(=O)n2C)cs1` (stereo not drawn) [Example 276], the Eff. % came out at 89% with Uromyces appendiculatus and 98% in the series with Phytophthora infestans [3]. The LogP in series [4] was 4.07 [a].
`Cn1c(/C(=N\OCc2cccc(N(CCC3CCCCC3)C(=O)OC(C)(C)C)n2)c2ccccc2)noc1=O` [Example 279, tert-butyl (2-cyclohexylethyl){6-[({[(Z)-(4-methyl-5-oxo-4,5-dihydro-1,2,4-oxadiazol-3-yl)(phenyl)methylene]amino}oxy)methyl]pyridin-2-yl}carbamate] displayed a chromatographic logP in series [1] of 6.73.
Take `CCCCOC(=O)Nc1cccc(CO/N=C(/c2cccc(F)c2)c2noc(=O)n2C)n1` [Example 295]: the Eff. % in the series with Uromyces appendiculatus was 70%; in the series on Plasmopara viticola, 89%; in the series with Phytophthora infestans [3], 97%. Further, in series [4], the LogP is 4.14 [a].
`CCOCCOC(=O)Nc1cccc(CO/N=C(/c2ccccc2)c2noc(=O)n2C)n1` [Example 400]: the Eff. % was found to be 94% with Uromyces appendiculatus and 100% with Phytophthora infestans [3]. In addition, the LogP in series [4] is 3.17 [a].
Take `NC(=N\O)/C(=N\OCc1csc(N)n1)c1ccccc1` [Example V-2, (1Z,2Z)-2-{[(2-amino-1,3-thiazol-4-yl)methoxy]imino}-N′-hydroxy-2-phenylethanimidamide]: in series [1], the chromatographic logP stood at 0.43.
Compound `N/C(=N\O)C(=NOCc1cccc(N)n1)c1ccccc1` [Example V-3, (Z)-2-{[(6-aminopyridin-2-yl)methoxy]imino}-N′-hydroxy-2-phenylethanimidamide] registered a chromatographic logP in series [1] of 0.41.
The same measure, in the same setting: the figure for `Cn1c(C(=O)c2ccccc2)noc1=O` [VII-1, 3-benzoyl-4-methyl-1,2,4-oxadiazol-5(4H)-one] is 3.21.
